Data from patent US10004701B2, “Methods and compositions for treating infection” (UNIVERSITY OF ROCHESTER, priority 2012, dated 2018).
Structures can show the parent of a compound that is named as a salt. Where two headings read alike, the source gives them in different places.

Columns and labels:
Assay in all cases: AK assay 384-well format, Prestwick library screening
[1] = tested on: E. faecium; type: cell-based, Enterococcus faecium; settings: 50 μM final drug concentration; for fold induction at 50 µM: Enterococcus faecium, 3 h
[2] = tested on: S. aureus strain USA300-0114; type: cell-based, Staphylococcus aureus; settings: 50 μM final drug concentration; for fold induction at 50 µM: Staphylococcus aureus, USA300, 3 h
[3] = tested on: K. pneumoniae; type: cell-based, Klebsiella pneumoniae; settings: 50 μM final drug concentration; for fold induction at 50 µM: Klebsiella pneumoniae, 3 h
[4] = tested on: A. baumannii strain 98-37-09; type: cell-based, Acinetobacter baumannii; settings: 50 μM final drug concentration; for fold induction at 50 µM: Acinetobacter baumannii, 983709, 3 h
[5] = tested on: P. aeruginosa; type: cell-based, Pseudomonas aeruginosa; settings: 50 μM final drug concentration; for fold induction at 50 µM: Pseudomonas aeruginosa, 3 h
[6] = tested on: E. cloacae; type: cell-based, Enterobacter cloacae; settings: 50 μM final drug concentration; for fold induction at 50 µM: Enterobacter cloacae, 3 h
[7] = tested on: E. coli; type: cell-based, Escherichia coli; settings: 50 μM final drug concentration; for fold induction at 50 µM: Escherichia coli, 3 h
[8] = planktonic E. faecium, cutoff for positive-scoring molecules 3-fold increase, read-out: AK-based Prestwick Library Screening Results, E. faecium (increase in extracellular AK activity)
[9] = planktonic S. aureus, cutoff for positive-scoring molecules 3-fold increase, read-out: AK-based Prestwick Library Screening Results, S. aureus (increase in extracellular AK activity)
[10] = planktonic K. pneumoniae, cutoff for positive-scoring molecules 3-fold increase, read-out: AK-based Prestwick Library Screening Results, K. pneumoniae (increase in extracellular AK activity)
[11] = planktonic A. baumannii, cutoff for positive-scoring molecules 3-fold increase, read-out: AK-based Prestwick Library Screening Results, A. baumannii (increase in extracellular AK activity)
[12] = planktonic P. aeruginosa, cutoff for positive-scoring molecules 3-fold increase, read-out: AK-based Prestwick Library Screening Results, P. aeruginosa (increase in extracellular AK activity)
[13] = planktonic E. cloacae, cutoff for positive-scoring molecules 3-fold increase, read-out: AK-based Prestwick Library Screening Results, E. cloacae (increase in extracellular AK activity)
[14] = planktonic E. coli, cutoff for positive-scoring molecules 3-fold increase, read-out: AK-based Prestwick Library Screening Results, E. coli (increase in extracellular AK activity)
[15] = planktonic E. faecium, positive cutoff 3-fold increase, read-out: AK-based Prestwick library screening result, E. faecium (fold increase in extracellular AK activity)
[16] = planktonic S. aureus, positive cutoff 3-fold increase, read-out: AK-based Prestwick library screening result, S. aureus (fold increase in extracellular AK activity)
[17] = planktonic K. pneumoniae, positive cutoff 3-fold increase, read-out: AK-based Prestwick library screening result, K. pneumoniae (fold increase in extracellular AK activity)
[18] = planktonic A. baumannii, positive cutoff 3-fold increase, read-out: AK-based Prestwick library screening result, A. baumannii (fold increase in extracellular AK activity)
[19] = planktonic P. aeruginosa, positive cutoff 3-fold increase, read-out: AK-based Prestwick library screening result, P. aeruginosa (fold increase in extracellular AK activity)
[20] = planktonic E. cloacae, positive cutoff 3-fold increase, read-out: AK-based Prestwick library screening result, E. cloacae (fold increase in extracellular AK activity)

O=c1cc(-c2ccc(O)cc2)oc2c([C@@H]3O[C@H](CO)[C@@H](O)[C@H](O)[C@H]3O)c(O)cc(O)c12 [Vitexin]
fold induction at 50 µM ([1]; planktonic, cutoff for positive-scoring molecules 3-fold increase, read-out: AK-based Prestwick Library Screening Results, E. faecium (fold increase in extracellular AK activity)): 1 | fold induction at 50 µM ([2]; planktonic, cutoff for positive-scoring molecules 3-fold increase, read-out: AK-based Prestwick Library Screening Results, S. aureus (fold increase in extracellular AK activity)): 0.7 | fold induction at 50 µM ([3]; planktonic, cutoff for positive-scoring molecules 3-fold increase, read-out: AK-based Prestwick Library Screening Results, K. pneumoniae (fold increase in extracellular AK activity)): 0.8 | fold induction at 50 µM ([4]; planktonic, cutoff for positive-scoring molecules 3-fold increase, read-out: AK-based Prestwick Library Screening Results, A. baumannii (fold increase in extracellular AK activity)): 0.7 | fold induction at 50 µM ([5]; planktonic, cutoff for positive-scoring molecules 3-fold increase, read-out: AK-based Prestwick Library Screening Results, P. aeruginosa (fold increase in extracellular AK activity)): 0.8 | fold induction at 50 µM ([6]; planktonic, cutoff for positive-scoring molecules 3-fold increase, read-out: AK-based Prestwick Library Screening Results, E. cloacae (fold increase in extracellular AK activity)): 0.8 | fold induction at 50 µM ([7]; planktonic, […], read-out: AK-based Prestwick Library Screening Results, E. coli (fold increase in extracellular AK activity)): 0.8

Cc1cccc(C)c1N=C1NCCCS1 [Xylazine]
fold induction at 50 µM ([1]; planktonic E. faecium, […], read-out: AK-based Prestwick Library Screening Results, E. faecium (increase in extracellular AK activity)): 0.9 | fold induction at 50 µM ([2]; planktonic S. aureus, […], read-out: AK-based Prestwick Library Screening Results, S. aureus (increase in extracellular AK activity)): 0.8 | fold induction at 50 µM ([3]; planktonic K. pneumoniae, […], read-out: AK-based Prestwick Library Screening Results, K. pneumoniae (increase in extracellular AK activity)): 0.7 | fold induction at 50 µM ([4]; planktonic A. baumannii, […], read-out: AK-based Prestwick Library Screening Results, A. baumannii (increase in extracellular AK activity)): 0.9 | fold induction at 50 µM ([5]; planktonic P. aeruginosa, […], read-out: AK-based Prestwick Library Screening Results, P. aeruginosa (increase in extracellular AK activity)): 0.9 | fold induction at 50 µM ([6]; planktonic E. cloacae, […], read-out: AK-based Prestwick Library Screening Results, E. cloacae (increase in extracellular AK activity)): 1.4 | fold induction at 50 µM ([7]; planktonic E. coli, […], read-out: AK-based Prestwick Library Screening Results, E. coli (increase in extracellular AK activity)): 0.8

Cc1cc(C(C)(C)C)cc(C)c1CC1=NCCN1 [Xylometazoline hydrochloride]
fold induction at 50 µM ([1]; planktonic E. faecium, 384-well, cutoff for positive-scoring molecules 3-fold increase, read-out: AK-based Prestwick Library Screening Results: E. faecium (increase in extracellular AK activity)): 1 | fold induction at 50 µM ([2]; planktonic S. aureus, 384-well, […], read-out: AK-based Prestwick Library Screening Results: S. aureus (increase in extracellular AK activity)): 1.2 | fold induction at 50 µM ([3]; planktonic K. pneumoniae, 384-well, cutoff for positive-scoring molecules 3-fold increase, read-out: AK-based Prestwick Library Screening Results: K. pneumoniae (increase in extracellular AK activity)): 0.9 | fold induction at 50 µM ([4]; planktonic A. baumannii, 384-well, […], read-out: AK-based Prestwick Library Screening Results: A. baumannii (increase in extracellular AK activity)): 1.3 | fold induction at 50 µM ([5]; planktonic P. aeruginosa, 384-well, […], read-out: AK-based Prestwick Library Screening Results: P. aeruginosa (increase in extracellular AK activity)): 1.2 | fold induction at 50 µM ([6]; planktonic E. cloacae, 384-well, […], read-out: AK-based Prestwick Library Screening Results: E. cloacae (increase in extracellular AK activity)): 1.4 | fold induction at 50 µM ([7]; planktonic E. coli, 384-well, […], read-out: AK-based Prestwick Library Screening Results: E. coli (increase in extracellular AK activity)): 1.2

COC(=O)[C@@H]1[C@H]2C[C@H]3c4[nH]c5ccccc5c4CCN3C[C@@H]2CC[C@@H]1O [Yohimbine hydrochloride]
fold induction at 50 µM [1, 8]: 0.9 | fold induction at 50 µM [2, 9]: 0.6 | fold induction at 50 µM [3, 10]: 0.8 | fold induction at 50 µM [4, 11]: 0.8 | fold induction at 50 µM [5, 12]: 0.9 | fold induction at 50 µM [6, 13]: 1 | fold induction at 50 µM [7, 14]: 0.8

O.O=C(O)[C@@H]1[C@H]2C[C@H]3c4[nH]c5ccccc5c4CCN3C[C@@H]2CC[C@@H]1O [Yohimbinic acid monohydrate]
AK-based Prestwick Library Screening Results, E. faecium (increase in extracellular AK activity) ([1]; planktonic E. faecium, […]): 0.9 | AK-based Prestwick Library Screening Results, S. aureus (increase in extracellular AK activity) ([2]; planktonic S. aureus, […]): 0.7 | AK-based Prestwick Library Screening Results, K. pneumoniae (increase in extracellular AK activity) ([3]; planktonic K. pneumoniae, […]): 0.7 | AK-based Prestwick Library Screening Results, A. baumannii (increase in extracellular AK activity) ([4]; planktonic A. baumannii, […]): 0.8 | AK-based Prestwick Library Screening Results, P. aeruginosa (increase in extracellular AK activity) ([5]; planktonic P. aeruginosa, […]): 0.9 | AK-based Prestwick Library Screening Results, E. cloacae (increase in extracellular AK activity) ([6]; planktonic E. cloacae, […]): 0.9 | AK-based Prestwick Library Screening Results, E. coli (increase in extracellular AK activity) ([7]; planktonic E. coli, […]): 0.9

Nc1ccn([C@H]2CC[C@@H](CO)O2)c(=O)n1 [Zalcitabine]
fold induction at 50 µM [1, 15]: 1.1 | fold induction at 50 µM [2, 16]: 1.1 | fold induction at 50 µM [3, 17]: 1.1 | fold induction at 50 µM [4, 18]: 1.2 | fold induction at 50 µM [5, 19]: 1 | fold induction at 50 µM [6, 20]: 1.8 | fold induction at 50 µM ([7]; planktonic E. coli, positive cutoff 3-fold increase, read-out: AK-based Prestwick library screening result, E. coli (fold increase in extracellular AK activity)): 1.3

CCCOc1ccccc1-c1nc2nn[nH]c2c(=O)[nH]1 [Zaprinast]
fold induction at 50 µM [1, 8]: 1 | fold induction at 50 µM [2, 9]: 0.6 | fold induction at 50 µM [3, 10]: 0.5 | fold induction at 50 µM [4, 11]: 0.6 | fold induction at 50 µM [5, 12]: 0.7 | fold induction at 50 µM [6, 13]: 0.8 | fold induction at 50 µM [7, 14]: 0.7

COc1cc(-c2ccc(=O)[nH]n2)ccc1OC(F)F [Zardaverine]
fold induction at 50 µM [1, 15]: 1 | fold induction at 50 µM [2, 16]: 0.6 | fold induction at 50 µM [3, 17]: 0.7 | fold induction at 50 µM [4, 18]: 0.7 | fold induction at 50 µM [5, 19]: 0.7 | fold induction at 50 µM [6, 20]: 0.9 | fold induction at 50 µM ([7]; planktonic E. coli, […], read-out: AK-based Prestwick library screening result, E. coli (fold increase in extracellular AK activity)): 0.6

Cc1cn([C@H]2C[C@H](N=[N+]=[N-])[C@@H](CO)O2)c(=O)[nH]c1=O [Zidovudine, AZT]
AK-based Prestwick Library Screening Results, E. faecium (increase in extracellular AK activity) ([1]; planktonic E. faecium, cutoff for positive-scoring molecules 3-fold increase): 0.9 | AK-based Prestwick Library Screening Results, S. aureus (increase in extracellular AK activity) ([2]; planktonic S. aureus, cutoff for positive-scoring molecules 3-fold increase): 0.6 | AK-based Prestwick Library Screening Results, K. pneumoniae (increase in extracellular AK activity) ([3]; planktonic K. pneumoniae, cutoff for positive-scoring molecules 3-fold increase): 1.2 | AK-based Prestwick Library Screening Results, A. baumannii (increase in extracellular AK activity) ([4]; planktonic A. baumannii, cutoff for positive-scoring molecules 3-fold increase): 1.8 | AK-based Prestwick Library Screening Results, P. aeruginosa (increase in extracellular AK activity) ([5]; planktonic P. aeruginosa, cutoff for positive-scoring molecules 3-fold increase): 0.6 | AK-based Prestwick Library Screening Results, E. cloacae (increase in extracellular AK activity) ([6]; planktonic E. cloacae, cutoff for positive-scoring molecules 3-fold increase): 4.2 | AK-based Prestwick Library Screening Results, E. coli (increase in extracellular AK activity) ([7]; planktonic E. coli, cutoff for positive-scoring molecules 3-fold increase): 2.1
